Experimental findings from article PMC5147891 (PLoS ONE, 2016) are described below.

Marks after values point to notes of the source that are not given here.

The target in experiment [1] is T1, hCB1 receptors (Homo sapiens, UniProt P21554). Description: Forskolin-stimulated intracellular [3H]cAMP in intact CHO-hCB1 cells. In kind it is cell-based. The following applies: concentration-effect curves. The procedure: CHO-hCB1, CHO-hCB2, or CHO-hMOR cells were plated separately in normal culture media into 24-well plates at a density of 6 × 10^6 cells/plate and incubated overnight at 37°C in 5% CO2. As previously described, the following day culture media was removed from each well and replaced with 500 μl pre-incubation mixture containing either HAM’s F-12 K (CHO-hCB1) or DMEM (CHO-hCB2 and CHO-hMOR) with 0.9% NaCl, 500 μM 3-isobutyl-1-methylxathine (IBMX) and 2 μCi/well [^3H]adenine. Cells were incubated for 3–5 hr at 37°C. The pre-incubation mix was removed and indicated concentrations of drugs were added to the individual wells for 15 min at 37°C in a Krebs-Ringer-HEPES solution (10 mM HEPES, 110mM NaCl, 25mM Glucose, 55mM Sucrose, 5mM KCl, 1mM MgCl2, 1.8 mM CaCl2, pH 7.4) containing IBMX, and 10 μM forskolin. […] Radioactivity contained in 4 ml of the final column eluate was counted by a Packard-Tri-carb 2100/TR liquid scintillation counter after adding 10 ml of liquid scintillation cocktail.
Data presented are expressed as mean ± standard error of the mean (S.E.M.) for a minimum of three experiments, each performed in triplicate. […] To compare three or more groups, statistical significance of the data was determined by a one-way ANOVA, followed by post hoc comparisons using a Tukey's or Dunnett's test. […]

Experiment [2] has as its target T1, hCB1 receptors. Description: [35S]GTPγS binding (G-protein activity), CHO-hCB1 membranes. The class given is biochemical. The following applies: 10 μM. The method, then:
CHO-hCB1, CHO-hCB2 and CHO-hMOR cells were homogenized individually with 10 complete strokes utilizing a 7ml Dounce glass homogenizer in an ice-cold buffer containing 50 mM HEPES pH 7.4, 3 mM MgCl2, and 1 mM EDTA as described previously. The homogenized samples were then centrifuged at 40,000 × g for 10 min at 4°C. Supernatants were discarded; the pellets re-suspended in the buffer, homogenized again, and centrifuged similarly twice more. After the final centrifugation step, supernatants were discarded and pellets were re-suspended in ice-cold 50 mM HEPES, pH 7.4 to achieve an approximate protein concentration of 10 mg/ml. Membrane homogenates were divided into aliquots and stored at −80°C for future use. A small aliquot of each membrane preparation was removed prior to freezing and the protein concentration was determined using BCA Protein Assay (Thermo Fisher Scientific, Waltham, MA).
The GTPγS binding assay to measure G-protein activation was performed as previously described. Briefly, in a total volume of 1 ml, 25 μg of CHO-hCB2, 50 μg of CHO-hCB1-Rx or 50 μg of CHO-hMOR membranes homogenates were added to each reaction mixture containing 0.1 nM [^35S]GTPγS, 20 mM HEPES, 10 mM MgCl2, 100 mM NaCl, 10 μM GDP, 0.1% bovine serum albumin and the indicated concentrations of ligand to be examined. After mixing, reaction mixtures were incubated at 30°C for 30 min. […] Nonspecific binding was defined by the amount of radioactivity remaining in the presence of 10 μM non-radiolabeled GTPγS. Reactions were terminated by rapid vacuum filtration through glass fiber filters followed by four washes with ice cold 50 mM HEPES (pH 7.4) containing 0.1% bovine serum albumin. Four ml of scintiverse scintillation fluid (Fisher Scientific, Waltham, MA) was added to the filters and the amount of radioactivity was quantified 24 hr later utilizing liquid scintillation spectrophotometry.
Data presented are expressed as mean ± standard error of the mean (S.E.M.) for a minimum of three experiments, each performed in triplicate. GraphPad Prism version 6.0f (GraphPad Software Inc.) was used for all curve-fitting and statistical analyses. Non-linear regression for one-site competition was used to determine the IC50 for competition receptor binding. IC50 values were subsequently converted to Ki values (a measure of receptor affinity) by the Cheng-Prusoff equation [31]. Non-linear regression was also used to analyze concentration-effect curves to determine the EC50 or IC50 (measures of potency) and Emax or Imax (measures of efficacy) for GTPγS binding and adenylyl cyclase experiments, respectively. […] To compare three or more groups, statistical significance of the data was determined by a one-way ANOVA, followed by post hoc comparisons using a Tukey's or Dunnett's test. […]
A general note: GTPγS resists hydrolysis and so accumulates on activated G proteins.

Experiment [3] deals with T1, hCB1 receptors. Description: Antagonism of CP-55,940 inhibition of AC activity in intact CHO-hCB1 cells. The class given is cell-based. Particulars: CHO-hCB1 cells. The procedure: After overnight seeding into 24-well plates and pre-incubation of cells with [^3H]adenine for 3–5 hr at 37°C as described above, media was removed and the indicated concentration of the SERM to be tested was added to all wells of the 24-well plate. […] Reactions were terminated and [^3H]cAMP isolated as described above.
Data presented are expressed as mean ± standard error of the mean (S.E.M.) for a minimum of three experiments, each performed in triplicate. GraphPad Prism version 6.0f (GraphPad Software Inc.) was used for all curve-fitting and statistical analyses. Non-linear regression for one-site competition was used to determine the IC50 for competition receptor binding. IC50 values were subsequently converted to Ki values (a measure of receptor affinity) by the Cheng-Prusoff equation [31]. Non-linear regression was also used to analyze concentration-effect curves to determine the EC50 or IC50 (measures of potency) and Emax or Imax (measures of efficacy) for GTPγS binding and adenylyl cyclase experiments, respectively. All dissociation constants and measurements of potency were converted to pKi, pKB, pEC50, or pIC50 values by taking the negative log of each value so that parametric tests could be used for statistical comparisons. To compare three or more groups, statistical significance of the data was determined by a one-way ANOVA, followed by post hoc comparisons using a Tukey's or Dunnett's test. To compare two groups, the non-paired Student's t-test was used.

T1 sequence (P21554 whole entry): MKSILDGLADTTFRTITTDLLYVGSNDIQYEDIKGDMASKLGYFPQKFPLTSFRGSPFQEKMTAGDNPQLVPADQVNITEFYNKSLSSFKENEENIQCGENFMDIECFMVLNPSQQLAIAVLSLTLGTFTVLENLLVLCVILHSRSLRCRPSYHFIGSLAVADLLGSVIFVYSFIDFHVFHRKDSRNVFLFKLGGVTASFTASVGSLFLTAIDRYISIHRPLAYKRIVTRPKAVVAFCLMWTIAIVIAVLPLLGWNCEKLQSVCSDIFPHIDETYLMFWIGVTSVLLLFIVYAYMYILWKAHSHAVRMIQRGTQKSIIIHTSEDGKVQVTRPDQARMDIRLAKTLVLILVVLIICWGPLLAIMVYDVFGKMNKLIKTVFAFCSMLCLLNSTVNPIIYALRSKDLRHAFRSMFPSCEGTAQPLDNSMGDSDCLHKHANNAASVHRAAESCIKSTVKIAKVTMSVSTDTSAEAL

As a reminder, the pKb is −log10 of the Kb, conventionally taken in molar units. High values mean a small Kb, low ones a large Kb. What is called Kb is the equilibrium dissociation constant of an antagonist, usually derived from a functional assay. Turning to `Cc1c(C(=O)NN2CCOCC2)nn(-c2ccc(Cl)cc2Cl)c1-c1ccc(I)cc1` [AM-281], on hCB1 receptors [1], the “Effect on basal cAMP levels” value was “did not alter cAMP levels”. Moreover, on hCB1 receptors [2], the “Effect on basal [35S]GTPγS binding” value is on record as “decreased” and the “IMAX, inhibition of basal [35S]GTPγS binding” value was found to be 33. ± 3.2%. For the same molecule, the “Type of antagonism of CP-55,940” value on hCB1 receptors [3] is “surmountable antagonism”. The pKb at hCB1 receptors [3] (against CP-55,940, AM-281 1 μM, Z-4OHT 10 μM, Z-End 30 μM) was determined as 6.81 ± 0.061. Further, on hCB1 receptors [3] (against CP-55,940, AM-281 1 μM, Z-4OHT 10 μM, Z-End 30 μM, read-out: Kb (antagonist dissociation constant)), the Kb was found to be 155 nM. For the same molecule, the “Shift (decrease) in potency (IC50) of CP-55,940” value on hCB1 receptors [3] (AM-281 1 μM, Z-Tam 30 μM) is listed as “greater than 8 fold”. Moreover, the “IMAX of CP-55,940, intracellular [3H]cAMP” value at hCB1 receptors [3] (CP-55,940 alone or after pre-incubation with AM-281 1 μM, Z-Tam 30 μM, Z-4OHT 10 μM, Z-End 30 μM) is on record as 35.7 ± 0.9^a %.
